Several values for one entry are separate records, joined by “and”; a condition that tells them apart may be missing. Identical values can stand only once. Like-named read-outs stand apart in the source and are kept apart here.
How the values were obtained:
[1] = Repeat dose oral capsule or intravenous infusion, tissue concentrations and ratios; type: in vivo, Male Beagle Dogs; conditions: Beagle dogs; for Kp / Tmax / AUC(0-t) / Cmax: male, dog
Procedure: (§1) Pharmacokinetics Study in Male Beagle Dogs. Three oral formulations were tested.
(§2) In this example, the pharmacokinetics and biodistribution are studied in Male Beagle Dogs. The Dog is a relevant model since the elimination rate from the different organs, mainly the liver, are closer to that observed in man. Three oral formulations were tested and compared to the injectable formulation: […]
(§3) The test item dosing formulation was administered once daily as a 2-hour intravenous infusion via the saphenous and/or cephalic vein using an infusion pump, using a temporary peripheral vein catheter attached to a syringe, for 2 consecutive days. The dose volume was 4 mL/kg and the infusion rate was 2 mL/kg/hour for all animals. The actual volume administered to each animal was calculated and adjusted based on the most recent practical body weight of each animal. The catheter was flushed with 0.9% Sodium Chloride for Injection, USP (saline) in order to ensure that the whole intended dose was administered to the animals, after which the temporary catheter was removed and discarded.
(§4) The test item was administered twice daily (targeted time: 12 hours apart) by oral capsule administration for 3 consecutive days to fasted animals (at least 4 hours prior to dosing). Food was returned 2 hours post-dose.
(§5) The number of capsules to be administered to each animal was fixed to 2 capsules/animals/occasion. If needed, following dosing, the oral cavity was rinsed with an appropriate volume of reverse osmosis water to facilitate swallowing. The oral cavity was inspected following dosing to ensure that the capsules have been swallowed.
The following tables present the different Pharmacokinetic parameters for IV and PO groups, the concentrations of pentamidine in different tissues and the tissue to blood and tissue to liver concentration ratios.

[2] = Repeat dose oral tablet or intravenous infusion, biodistribution and tissue elimination; conditions: Beagle dogs
NASH-like pathology = assay: Diabetic and high-fat diet model (STAM mice, NASH-like pathology); type: in vivo, C57BL/6 mice; conditions: high dose group (25 mg/kg IP three times a week, 6-9 wks)
Procedure: In this experiment, NASH-like pathology is induced in C57BL/6 mice by a single subcutaneous injection of 200 ug streptozotocin 2 days after birth and feeding with high fat diet (HFD, 57 kcal % fat, cat#: HFD32, CLEA Japan, Japan) after 4 weeks of age (STAM mice). Vehicle or pentamidine treatment was administered three times a week from 6 to 9 weeks of age. Vehicle (0.9% NaCl) and PENTAMIDINE were administered by intraperitoneal route in a volume of 10 mL/kg.

[3] = system: GalN/LPS fulminant liver injury; assay: GalN/LPS fulminant liver injury model; type: in vivo; conditions: mice; for Serum ALT / Serum ALT levels reduced relative to PBS vehicle: 6.5 hours
Procedure: To evaluate the anti-inflammatory, anti-TNFα and hepato-protective properties of PENTAMIDINE, a Galactosamine/Liposaccharide (GalN/LPS) fulminant liver injury model was used.
Three independent experiments on mice untreated or pretreated with vehicle, compound PENTAMIDINE (isethionate salt) at doses of 25 and 40 mg/kg. PENTAMIDINE is dosed IP 30-minutes prior to the co-treatment with subtoxic doses of hepatotoxin GalN and immune stimulant LPS. Mice were sacrificed at 6.5 hours after GalN/LPS for analysis. The analysis of alanine transaminase (ALT) serum levels and histological observations allow the evaluation of the hepato-protective, anti-TNF-α, anti-inflammatory and/or anti-fibrotic activity.
To evaluate the anti-inflammatory, anti-TNFα and hepatoprotective properties of different pentamidine salt such as pentamidine bis-HCl (penta-HCL) and pentamidine tosylate (penta-Tos), a Galactosamine/Liposaccharide (GalN/LPS) fulminant liver injury model was used.
Pentamidine HCl and Tosylate were dosed IP 30-minutes prior to the co-treatment with subtoxic doses of hepatotoxin GalN and immune stimulant LPS. Mice were sacrificed at 6.5 hours after GalN/LPS for analysis. The analysis of alanine transaminase (ALT) serum levels and histological observations allow the evaluation of the hepato-protective, anti-TNF-α, anti-inflammatory and/or anti-fibrotic activity. Results

[4] = mice, PO 50 mg/kg
[5] = Repeat dose oral capsule or intravenous infusion pharmacokinetics in blood; type: in vivo, Male Beagle Dogs; conditions: Beagle dogs, 2-h IV 4 mg/kg/day, Day 1, individual animals and Mean
Procedure: as §1, §2, §3, §4, §5

[6] = intravenous dosing, individual animals 1001-1006 and Mean
[7] = summary (group mean), Group 1 IV, Groups 2-4 oral capsules
[8] = IP 25 mg/kg 30 minutes prior to GalN/LPS
[9] = IP 40 mg/kg 30 minutes prior to GalN/LPS
[10] = male, Beagle, dog, iv, 4 mg/kg/day

N=C(N)c1ccc(OCCCCCOc2ccc(C(=N)N)cc2)cc1 [pentamidine, pentamidine bis(2-hydroxyethanesulfonate)]
Liver AUClast ([1]; IV dosing, Day 1): 27072 µM·h
Liver Cmax ([1]; IV dosing, Day 1): 210 µM
Lung AUClast ([1]; IV dosing, Day 1): 1807.2 µM·h
Lung Cmax ([1]; IV dosing, Day 1): 13.4 µM
Tissue-to-Liver Lung, based on AUC ([1]; IV, *Based on AUC): 6.67* %
Tissue-to-Liver Muscle, based on AUC ([1]; IV, *Based on AUC): 2.9* %
Tissue-to-Liver Skin, based on AUC ([1]; IV, *Based on AUC): 0.87* %
Concentration Blood [1, 6]: 0.16 μmol/L and 0.07 μmol/L and 0.08 μmol/L (2×) and 0.121 μmol/L and 0.25 μmol/L
Concentration Brain [1, 6]: 0.80 μmol/L (3×) and 0.70 μmol/L and 0.90 μmol/L and 0.50 μmol/L
Concentration Heart [1, 6]: 22.30 µM and 13.90 µM and 15.80 µM and 20.20 µM and 10.10 µM and 14.20 µM
Concentration Kidney [1, 6]: 53.10 µM and 38.30 µM and 48.70 µM and 55.80 µM and 44.80 µM and 39.70 µM
Concentration Liver [1, 6]: 208 µM and 174 µM and 168 µM and 210 µM and 125 µM and 159 µM
Concentration Lung [1, 6]: 11.56 µM and 11.52 µM and 13.39 µM and 10.48 µM and 9.80 µM and 11.80 µM
Concentration Muscle [1, 6]: 5.28 µM and 4.98 µM and 5.29 µM and 6.11 µM and 2.82 µM and 5.56 µM
Concentration Pancreas [1, 6]: 8.50 µM and 6.00 µM and 8.00 µM and 8.20 µM and 4.60 µM and 7.10 µM
Concentration Skin [1, 6]: 1.45 μmol/L and 1.23 μmol/L and 1.41 μmol/L and 1.80 μmol/L and 1.63 μmol/L (2×)
Tissue-to-Liver Brain [1, 7]: 0.46%
Tissue-to-Liver Heart [1, 7]: 9.66%
Tissue-to-Liver Kidney [1, 7]: 28.4%
Tissue-to-Liver Lung [1, 7]: 6.74%
Tissue-to-Liver Muscle [1, 7]: 2.9%
Tissue-to-Liver Pancreas [1, 7]: 4.34%
Tissue-to-Liver Skin [1, 7]: 0.91%
Kp ([1]; Beagle, brain/blood, intravenous, summary (group mean), Group 1 IV, Groups 2-4 oral capsules, read-out: Tissue-to-blood ratio Brain): 6.19
Kp ([1]; Beagle, heart/blood, intravenous, summary (group mean), Group 1 IV, Groups 2-4 oral capsules, read-out: Tissue-to-blood ratio Heart): 133
Kp ([1]; Beagle, kidney/blood, intravenous, summary (group mean), Group 1 IV, Groups 2-4 oral capsules, read-out: Tissue-to-blood ratio Kidney): 386
Kp ([1]; Beagle, liver/blood, intravenous, summary (group mean), Group 1 IV, Groups 2-4 oral capsules, read-out: Tissue-to-blood ratio Liver): 1690
Kp ([1]; Beagle, liver/blood, iv, 4 mg/kg/day, IV, *Based on AUC, read-out: Tissue-to-blood ratio Liver, based on AUC): 922
Kp ([1]; Beagle, lung/blood, intravenous, summary (group mean), Group 1 IV, Groups 2-4 oral capsules, read-out: Tissue-to-blood ratio Lung): 111
Kp ([1]; Beagle, lung/blood, iv, 4 mg/kg/day, IV, *Based on AUC, read-out: Tissue-to-blood ratio Lung, based on AUC): 61.6
Kp ([1]; Beagle, muscle/blood, intravenous, summary (group mean), Group 1 IV, Groups 2-4 oral capsules, read-out: Tissue-to-blood ratio Muscle): 48.7
Kp ([1]; Beagle, muscle/blood, iv, 4 mg/kg/day, IV, *Based on AUC, read-out: Tissue-to-blood ratio Muscle, based on AUC): 8.01
Kp ([1]; Beagle, pancreas/blood, intravenous, summary (group mean), Group 1 IV, Groups 2-4 oral capsules, read-out: Tissue-to-blood ratio Pancreas): 58.4
Kp ([1]; Beagle, skin/blood, intravenous, summary (group mean), Group 1 IV, Groups 2-4 oral capsules, read-out: Tissue-to-blood ratio Skin): 14.4
Kp ([1]; Beagle, skin/blood, iv, 4 mg/kg/day, IV, *Based on AUC, read-out: Tissue-to-blood ratio Skin, based on AUC): 26.8
Kp ([1]; beagle, brain / blood, iv, intravenous dosing, individual animals and mean, read-out: Tissue-to-blood ratio Brain): 4.13
Kp ([1]; beagle, kidney / blood, iv, intravenous dosing, individual animals and mean, read-out: Tissue-to-blood ratio Kidney): 370
Kp ([1]; beagle, pancreas / blood, iv, intravenous dosing, individual animals and mean, read-out: Tissue-to-blood ratio Pancreas): 38
Tmax ([1]; liver, 4 mg/kg/day, IV dosing, Day 1, read-out: Liver Tmax): 168 h
Tmax ([1]; lung, 4 mg/kg/day, IV dosing, Day 1, read-out: Lung Tmax): 120 h
AUC(0-t) ([1]; muscle, 4 mg/kg/day, IV dosing, Day 1, read-out: Muscle AUClast): 786 µM·h
Cmax ([1]; muscle, 4 mg/kg/day, IV dosing, Day 1, read-out: Muscle Cmax): 6.1 µM
Tmax ([1]; muscle, 4 mg/kg/day, IV dosing, Day 1, read-out: Muscle Tmax): 168 h
AUC(0-t) ([1]; skin, 4 mg/kg/day, IV dosing, Day 1, read-out: Skin AUClast): 235 µM·h
Cmax ([1]; skin, 4 mg/kg/day, IV dosing, Day 1, read-out: Skin Cmax): 1.8 µM
Tmax ([1]; skin, 4 mg/kg/day, IV dosing, Day 1, read-out: Skin Tmax): 168 h
Biodistribution in organs following PO administration ([2]; instant-release tablet): favored the liver
exposure to the pancreas and kidney, PO versus IV administration ([2]; instant-release tablet PO vs IV, normalized liver concentrations): significantly lower exposure
Liver weights (NASH-like pathology): close to normal mice control values
fibrosis formation (Sirius Red staining) (NASH-like pathology): trend for reduction
Numbers of TUNEL-positive cells per high power field in the livers ([3]; GalN/LPS, P<0.0002 as compared to PBS+GalN/LPS): significantly decreased
Serum ALT [3, 8]: 402+/−105
Serum ALT levels reduced relative to PBS vehicle [3, 8]: 93%
Serum ALT [3, 9]: 177+/−44
Serum ALT levels reduced relative to PBS vehicle [3, 9]: 97%
Liver and kidney levels after PO administration versus blood [4]: several folds that of blood
muscle concentration after PO administration versus blood [4]: several folds the concentration found in blood
AUC % Extrap ([5]; 4 mg/kg/day): 22.12% and 18.04% and 19.13% and 48.74% and 43.8% and 19.89%
AUCINF ([5]; 4 mg/kg/day): 24.54 µM·h and 35.82 µM·h and 9.09 µM·h and 20.95 µM·h and 35.1 µM·h and 17.89 µM·h
AUClast ([5]; 4 mg/kg/day): 19.11 µM·h and 29.35 µM·h and 7.35 µM·h and 10.74 µM·h and 19.73 µM·h and 14.33 µM·h
CL ([5]; 4 mg/kg/day): 8 mL/min/kg and 5.5 mL/min/kg and 21.5 mL/min/kg and 9.33 mL/min/kg and 5.67 mL/min/kg and 11 mL/min/kg
Cmax ([5]; 4 mg/kg/day): 2.2 µM and 2.16 µM and 1.74 µM and 1.22 µM
MRTlast ([5]; 4 mg/kg/day): 45.29 h and 65.59 h and 6.36 h and 18.84 h and 30.73 h and 38.14 h
Tlast ([5]; 4 mg/kg/day): 120 h and 168 h and 24 h and 48 h and 72 h and 96 h
Tmax ([5]; 4 mg/kg/day): 2 h
Vz ([5]; 4 mg/kg/day): 26.52 L/kg and 18.59 L/kg and 22.93 L/kg and 32.19 L/kg and 33.41 L/kg
t1/2 ([5]; 4 mg/kg/day): 35.23 h
Cmax [5, 10]: 1.43 µM
half-life [5, 10]: 47 h
Tmax ([5]; male, Beagle, dog, iv, 4 mg/kg/day, read-out: Tmax): 1 h
Vd ([5]; male, Beagle, dog, iv, 4 mg/kg/day, read-out: Vz): 32.5 L/kg
Cmax ([5]; male, dog): 1.04 µM
